{
  "source": "patent US20100267561A1",
  "about": "“HERBICIDAL PYRIDAZINONE DERIVATIVES” (priority 2007, published 2010)",
  "assay_in_all_cases": "Test B pre-/postemergence plant response",
  "type_in_all_cases": "in vivo",
  "key": {"[1]": {"test_system": "Russian thistle (Salsola iberica)", "details": "Preemergence; for Russian Thistle plant response rating: scale 0 to 100", "outline": "(§1)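 Visual scoring from 0 (no effect) to 100 (complete control) against untreated controls was done 13 to 15 days after greenhouse treatment. Chemicals were formulated in a surfactant-containing non-phytotoxic solvent and applied to soil preemergence or to 1- to 4-leaf (2-18 cm) plants postemergence.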"}, "[2]": {"test_system": "corn (Zea mays)", "details": "for Corn plant response rating (crop injury, 0 = no effect, 100 = complete kill) at 31 g/ha: 31 g ai/ha; for Corn plant response rating (crop injury, 0 = no effect, 100 = complete kill) at 62 g/ha: 62 g ai/ha, 100 complete control", "outline": "as §1"}, "[3]": {"test_system": "kochia (Kochia scoparia)", "details": "for Kochia plant response rating: postemergence, 0-100 scale; for Plant response rating, Kochia: Postemergence", "outline": "as §1"}, "[4]": {"test_system": "green foxtail (Setaria viridis)", "details": "for pest or weed control at 31 g/ha: 31 g ai/ha; for pest or weed control at 62 g/ha: 62 g ai/ha, 100 complete control", "outline": "as §1"}, "[5]": {"test_system": "common ragweed (Ambrosia elation)", "details": "for pest or weed control at 31 g/ha / pest or weed control at 62 g/ha: Ambrosia, read-out: Plant response rating, Ragweed; for pest or weed control at 31 g/ha: 31 g ai/ha; for pest or weed control at 62 g/ha: 62 g ai/ha, 100 complete control", "outline": "as §1"}, "[6]": {"test_system": "lambsquarters (Chenopodium album)", "details": "for pest or weed control at 31 g/ha / pest or weed control at 62 g/ha: Chenopodium album, read-out: Plant response rating, Lambsquarters; for pest or weed control at 31 g/ha: 31 g ai/ha; for pest or weed control at 62 g/ha: 62 g ai/ha, 100 complete control", "outline": "as §1"}, "[7]": {"test_system": "wild oat (Avena fatua)", "details": "for pest or weed control at 31 g/ha / pest or weed control at 62 g/ha: Avena fatua, read-out: Plant response rating, Oat, Wild; for pest or weed control at 31 g/ha: 31 g ai/ha; for pest or weed control at 62 g/ha: 62 g ai/ha, 100 complete control", "outline": "as §1"}, "[8]": {"details": "8 g ai/ha, postemergence, 0-100 scale"}, "[9]": {"details": "Preemergence, 8 g ai/ha, scale 0 to 100"}, "[10]": {"details": "Preemergence, 16 g ai/ha, scale 0 to 100"}, "[11]": {"details": "16 g ai/ha, postemergence, 0-100 scale"}, "[12]": {"details": "post-emergence, Postemergence, scale 0 to 100"}, "[13]": {"details": "post-emergence, Postemergence, scale 0 to 100, 0 no effect"}, "[14]": {"details": "pre-emergence, Preemergence, scale 0 to 100 (0 no effect, 100 complete control)"}, "[15]": {"details": "pre-emergence, Preemergence, 0 to 100 scale, 0 no effect"}},
  "note": "Like-named read-outs stand apart in the source and are kept apart here.",
  "data": [
    {"smiles": "Cc1nn(C)c(=O)c(-n2nc(-c3ccc(C(F)(F)F)cc3)cc2C)c1O", "note": "[Compound 75, 5-hydroxy-2,6-dimethyl-4-[5-methyl-3-[4-(trifluoromethyl)phenyl]-1H-pyrazol-1-yl]-3(2H)-pyridazinone]", "values": [
      {"measurement": "Plant response rating, Russian Thistle", "setting": "[1]; 31 g ai/ha, scale 0 to 100 (0 no effect, 100 complete control)", "value": 0},
      {"measurement": "Plant response rating, Russian Thistle", "setting": "[1]; 62 g ai/ha, 0 to 100 scale, 0 no effect, 100 complete control", "value": 0},
      {"measurement": "Russian Thistle plant response rating", "setting": "[1]; 8 g ai/ha", "value": 0},
      {"measurement": "Russian Thistle plant response rating", "setting": "[1]; 16 g ai/ha", "value": 0},
      {"measurement": "Corn plant response rating", "setting": "[2]; [8]", "value": 0},
      {"measurement": "Corn plant response rating", "setting": "[2]; [9]", "value": 0},
      {"measurement": "Corn plant response rating", "setting": "[2]; [10]", "value": 0},
      {"measurement": "Corn plant response rating (crop injury, 0 = no effect, 100 = complete kill) at 16 g/ha", "setting": "[2]; Zea mays, post-emergence, Postemergence, 16 g ai/ha, scale 0 to 100", "value": 50, "unit": "%"},
      {"measurement": "Corn plant response rating (crop injury, 0 = no effect, 100 = complete kill) at 31 g/ha", "setting": "[2]; Zea mays, post-emergence, Postemergence, scale 0 to 100", "value": 90, "unit": "%"},
      {"measurement": "Corn plant response rating (crop injury, 0 = no effect, 100 = complete kill) at 62 g/ha", "setting": "[2]; Zea mays, post-emergence, Postemergence, scale 0 to 100, 0 no effect", "value": 100, "unit": "%"},
      {"measurement": "Corn plant response rating (crop injury, 0 = no effect, 100 = complete kill) at 31 g/ha", "setting": "[2]; Zea mays, pre-emergence, Preemergence, scale 0 to 100 (0 no effect, 100 complete control)", "value": 75, "unit": "%"},
      {"measurement": "Corn plant response rating (crop injury, 0 = no effect, 100 = complete kill) at 62 g/ha", "setting": "[2]; Zea mays, pre-emergence, Preemergence, 0 to 100 scale, 0 no effect", "value": 95, "unit": "%"},
      {"measurement": "Kochia plant response rating", "setting": "[3]; 8 g ai/ha", "value": 0},
      {"measurement": "Kochia plant response rating", "setting": "[3]; 16 g ai/ha", "value": 0},
      {"measurement": "Plant response rating, Kochia", "setting": "[3]; 31 g ai/ha, scale 0 to 100", "value": 0},
      {"measurement": "Plant response rating, Kochia", "setting": "[3]; 62 g ai/ha, scale 0 to 100, 0 no effect, 100 complete control", "value": 0},
      {"measurement": "Foxtail, Green plant response rating", "setting": "[4]; [8]", "value": 0},
      {"measurement": "Foxtail, Green plant response rating", "setting": "[4]; [9]", "value": 0},
      {"measurement": "Foxtail, Green plant response rating", "setting": "[4]; [10]", "value": 30},
      {"measurement": "pest or weed control at 16 g/ha", "setting": "[4]; Setaria viridis, post-emergence, Postemergence, 16 g ai/ha, scale 0 to 100, read-out: Plant response rating, Foxtail, Green", "value": 40, "unit": "%"},
      {"measurement": "pest or weed control at 31 g/ha", "setting": "[4]; Setaria viridis, post-emergence, Postemergence, scale 0 to 100, read-out: Plant response rating, Foxtail, Green", "value": 80, "unit": "%"},
      {"measurement": "pest or weed control at 62 g/ha", "setting": "[4]; Setaria viridis, post-emergence, Postemergence, scale 0 to 100, 0 no effect, read-out: Plant response rating, Foxtail, Green", "value": 95, "unit": "%"},
      {"measurement": "pest or weed control at 31 g/ha", "setting": "[4]; Setaria viridis, pre-emergence, Preemergence, scale 0 to 100 (0 no effect, 100 complete control), read-out: Plant response rating, Foxtail, Green", "value": 50, "unit": "%"},
      {"measurement": "pest or weed control at 62 g/ha", "setting": "[4]; Setaria viridis, pre-emergence, Preemergence, 0 to 100 scale, 0 no effect, read-out: Plant response rating, Foxtail, Green", "value": 80, "unit": "%"},
      {"measurement": "Ragweed plant response rating", "setting": "[5]; [8]", "value": 0},
      {"measurement": "Ragweed plant response rating", "setting": "[5]; [11]", "value": 0},
      {"measurement": "pest or weed control at 31 g/ha", "setting": "[5]; [12]", "value": 0, "unit": "%"},
      {"measurement": "pest or weed control at 62 g/ha", "setting": "[5]; [13]", "value": 0, "unit": "%"},
      {"measurement": "pest or weed control at 31 g/ha", "setting": "[5]; [14]", "value": 0, "unit": "%"},
      {"measurement": "pest or weed control at 62 g/ha", "setting": "[5]; [15]", "value": 0, "unit": "%"},
      {"measurement": "Ragweed plant response rating", "setting": "[5]; [9]", "value": 0},
      {"measurement": "Ragweed plant response rating", "setting": "[5]; [10]", "value": 0},
      {"measurement": "Lambsquarters plant response rating", "setting": "[6]; [8]", "value": 0},
      {"measurement": "Lambsquarters plant response rating", "setting": "[6]; [11]", "value": 0},
      {"measurement": "pest or weed control at 31 g/ha", "setting": "[6]; [12]", "value": 0, "unit": "%"},
      {"measurement": "pest or weed control at 62 g/ha", "setting": "[6]; [13]", "value": 0, "unit": "%"},
      {"measurement": "pest or weed control at 31 g/ha", "setting": "[6]; [14]", "value": 0, "unit": "%"},
      {"measurement": "pest or weed control at 62 g/ha", "setting": "[6]; [15]", "value": 0, "unit": "%"},
      {"measurement": "Lambsquarters plant response rating", "setting": "[6]; [9]", "value": 0},
      {"measurement": "Lambsquarters plant response rating", "setting": "[6]; [10]", "value": 0},
      {"measurement": "Oat, Wild plant response rating", "setting": "[7]; [8]", "value": 0},
      {"measurement": "Oat, Wild plant response rating", "setting": "[7]; [11]", "value": 30},
      {"measurement": "pest or weed control at 31 g/ha", "setting": "[7]; [12]", "value": 85, "unit": "%"},
      {"measurement": "pest or weed control at 62 g/ha", "setting": "[7]; [13]", "value": 98, "unit": "%"},
      {"measurement": "pest or weed control at 31 g/ha", "setting": "[7]; [14]", "value": 40, "unit": "%"},
      {"measurement": "pest or weed control at 62 g/ha", "setting": "[7]; [15]", "value": 50, "unit": "%"},
      {"measurement": "Oat, Wild plant response rating", "setting": "[7]; [9]", "value": 0},
      {"measurement": "Oat, Wild plant response rating", "setting": "[7]; [10]", "value": 0}
    ]}
  ]
}
